In ChEMBL document CHEMBL5723587, “Data for DCP probe BI-113823” (2024):
Activity calls are given as the source filed them. No cut-off for these calls is given here.

Assays:
[1] = molecular target: D(2) dopamine receptor (Homo sapiens) (UniProt P14416); experiment: Activity against D2S/HU in the Eurofins SafetyScreen44 (BI) by Radioligand Binding; details: Compound concentration 10.0 uM
[2] = molecular target: Estrogen receptor (Homo sapiens) (UniProt P03372); experiment: Activity against ERALPHA/H in the Eurofins SafetyScreen44 (BI) by Radioactive Assay; details: Compound concentration 10.0 uM
[3] = molecular target: Substance-P receptor (Homo sapiens) (UniProt P25103); experiment: Activity against NK1/HU in the Eurofins SafetyScreen44 (BI) by Radioactive Assay; details: Compound concentration 10.0 uM
[4] = molecular target: P2X purinoceptor (Oryctolagus cuniculus) (UniProt G1U3D6); experiment: Activity against P2X/RB in the Eurofins SafetyScreen44 (BI) by Radioactive Assay; details: Compound concentration 10.0 uM
P2X purinoceptor (Oryctolagus cuniculus), sequence (G1U3D6 as listed by the source): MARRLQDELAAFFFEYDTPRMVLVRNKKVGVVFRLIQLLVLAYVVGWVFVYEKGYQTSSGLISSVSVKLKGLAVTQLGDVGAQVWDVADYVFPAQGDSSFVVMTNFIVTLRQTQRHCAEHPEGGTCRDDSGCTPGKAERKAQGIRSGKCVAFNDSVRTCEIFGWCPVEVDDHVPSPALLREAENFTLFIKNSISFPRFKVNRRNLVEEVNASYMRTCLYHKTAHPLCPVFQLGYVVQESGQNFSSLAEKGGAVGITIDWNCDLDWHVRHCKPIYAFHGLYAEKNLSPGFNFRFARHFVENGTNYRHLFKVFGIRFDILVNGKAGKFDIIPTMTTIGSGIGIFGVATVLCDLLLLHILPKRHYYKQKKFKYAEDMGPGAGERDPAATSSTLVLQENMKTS

[5] = molecular target: T1, B1 bradykinin receptor (Homo sapiens, UniProt P46663); experiment: Radioligand binding assay (displacement of kallidin, hBDKRB1 ) at 10 µM ( Non-specific binding is estimated in the presence of 10 µM Des-Arg9- (Leu8)-Bradykinin. Membranes are filtered and washed, the filters are then counted to determine [3H]Kallidin[des-Arg10, Leu9] specifically bound.); set-up: compound concentration 10 uM
T1 sequence (P46663 whole entry): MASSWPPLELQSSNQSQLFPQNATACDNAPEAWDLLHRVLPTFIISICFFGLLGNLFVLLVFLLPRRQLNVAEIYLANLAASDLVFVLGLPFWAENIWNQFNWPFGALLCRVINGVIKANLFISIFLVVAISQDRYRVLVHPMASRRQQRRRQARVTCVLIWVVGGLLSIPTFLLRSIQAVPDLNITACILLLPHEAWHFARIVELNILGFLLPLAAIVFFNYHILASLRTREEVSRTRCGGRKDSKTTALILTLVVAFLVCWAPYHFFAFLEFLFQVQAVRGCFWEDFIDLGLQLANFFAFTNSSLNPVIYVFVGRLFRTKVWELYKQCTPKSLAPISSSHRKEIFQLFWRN

[6] = molecular target: Voltage-dependent N-type calcium channel subunit alpha-1B (Rattus norvegicus) (UniProt Q02294); experiment: Activity against CA+/N/RA in the Eurofins SafetyScreen44 (BI) by Radioactive Assay; details: Compound concentration 10.0 uM
[7] = molecular target: Gamma-aminobutyric acid receptor subunit alpha-1 (Rattus norvegicus) (UniProt P62813); experiment: Activity against GABAA MUSCIMOL CENT in the Eurofins SafetyScreen44 (BI) by Scintillation counting; details: Compound concentration 10.0 uM
Gamma-aminobutyric acid receptor subunit alpha-1 (Rattus norvegicus), sequence (P62813 whole entry): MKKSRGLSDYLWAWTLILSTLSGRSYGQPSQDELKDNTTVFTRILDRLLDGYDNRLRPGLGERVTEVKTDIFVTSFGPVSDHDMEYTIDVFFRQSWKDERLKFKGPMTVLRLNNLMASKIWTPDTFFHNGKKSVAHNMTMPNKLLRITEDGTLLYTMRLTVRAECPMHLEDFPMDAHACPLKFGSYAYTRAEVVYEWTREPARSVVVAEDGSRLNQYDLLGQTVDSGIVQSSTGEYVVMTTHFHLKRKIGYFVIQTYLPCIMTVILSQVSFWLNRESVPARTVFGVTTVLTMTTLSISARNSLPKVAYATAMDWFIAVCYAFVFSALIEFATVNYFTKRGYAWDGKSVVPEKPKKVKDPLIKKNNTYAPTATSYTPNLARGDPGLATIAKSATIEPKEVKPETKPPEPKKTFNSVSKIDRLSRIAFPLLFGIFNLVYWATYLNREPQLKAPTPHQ

[8] = molecular target: Alpha-2A adrenergic receptor (Homo sapiens) (UniProt P08913); experiment: Activity against ALPHA2A/H in the Eurofins SafetyScreen44 (BI) by Radioactive Assay; details: Compound concentration 10.0 uM
Alpha-2A adrenergic receptor (Homo sapiens), sequence (P08913 whole entry): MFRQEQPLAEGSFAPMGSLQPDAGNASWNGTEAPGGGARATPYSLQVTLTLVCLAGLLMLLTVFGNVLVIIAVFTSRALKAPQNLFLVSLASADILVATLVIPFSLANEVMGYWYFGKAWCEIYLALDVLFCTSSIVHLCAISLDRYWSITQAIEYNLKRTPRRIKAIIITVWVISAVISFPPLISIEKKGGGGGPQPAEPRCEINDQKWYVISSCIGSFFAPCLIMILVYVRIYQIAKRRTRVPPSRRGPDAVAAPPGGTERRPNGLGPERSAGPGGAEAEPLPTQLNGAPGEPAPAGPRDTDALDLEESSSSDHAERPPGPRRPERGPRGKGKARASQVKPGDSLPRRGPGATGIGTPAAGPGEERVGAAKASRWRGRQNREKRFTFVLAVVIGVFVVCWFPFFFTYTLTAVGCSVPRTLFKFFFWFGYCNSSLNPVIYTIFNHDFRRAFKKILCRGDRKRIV

[9] = molecular target: T1, B1 bradykinin receptor; experiment: Measurement of intracellular calcium in HEK-cells expressing hBDKRB1 at up to 1 µM ( The compound antagonizes the effects of the specific B1 agonist [Lys-des-Arg9 ]-Bradykinin (10 nM) in a concentration-dependent manner.); assay type: functional, cell-based; set-up: compound concentration < 1 uM
[10] = molecular target: Nicotinic acetylcholine receptor alpha-1/beta-1 (Homo sapiens) (UniProt P02708+P11230); experiment: Activity against NACH_BS_N/H in the Eurofins SafetyScreen44 (BI) by Radioactive Assay; assay type: protein-complex assay; details: Compound concentration 10.0 uM
[11] = molecular target: Cysteinyl leukotriene receptor 1 (Homo sapiens) (UniProt Q9Y271); experiment: Activity against CYSLT1_HS in the Eurofins SafetyScreen44 (BI) by Radioactive Assay; details: Compound concentration 10.0 uM
[12] = molecular target: Mu-type opioid receptor (Homo sapiens) (UniProt P35372); experiment: Activity against MU/HU in the Eurofins SafetyScreen44 (BI) by Radioactive Assay; details: Compound concentration 10.0 uM
Mu-type opioid receptor (Homo sapiens), sequence (P35372 whole entry): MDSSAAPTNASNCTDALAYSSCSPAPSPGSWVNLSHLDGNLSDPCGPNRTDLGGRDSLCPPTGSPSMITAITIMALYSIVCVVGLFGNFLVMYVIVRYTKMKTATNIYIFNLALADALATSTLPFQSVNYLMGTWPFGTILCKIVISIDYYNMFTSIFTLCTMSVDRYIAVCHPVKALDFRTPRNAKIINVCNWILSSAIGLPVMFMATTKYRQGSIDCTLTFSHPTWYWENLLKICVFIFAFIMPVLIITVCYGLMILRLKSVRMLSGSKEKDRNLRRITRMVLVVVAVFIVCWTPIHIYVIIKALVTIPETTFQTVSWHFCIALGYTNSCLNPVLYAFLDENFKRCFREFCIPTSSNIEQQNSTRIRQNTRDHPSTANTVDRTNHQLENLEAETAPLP

[13] = molecular target: Kappa-type opioid receptor (Homo sapiens) (UniProt P41145); experiment: Activity against KAPPA/HU in the Eurofins SafetyScreen44 (BI) by Radioactive Assay; details: Compound concentration 10.0 uM
Kappa-type opioid receptor (Homo sapiens), sequence (P41145 whole entry): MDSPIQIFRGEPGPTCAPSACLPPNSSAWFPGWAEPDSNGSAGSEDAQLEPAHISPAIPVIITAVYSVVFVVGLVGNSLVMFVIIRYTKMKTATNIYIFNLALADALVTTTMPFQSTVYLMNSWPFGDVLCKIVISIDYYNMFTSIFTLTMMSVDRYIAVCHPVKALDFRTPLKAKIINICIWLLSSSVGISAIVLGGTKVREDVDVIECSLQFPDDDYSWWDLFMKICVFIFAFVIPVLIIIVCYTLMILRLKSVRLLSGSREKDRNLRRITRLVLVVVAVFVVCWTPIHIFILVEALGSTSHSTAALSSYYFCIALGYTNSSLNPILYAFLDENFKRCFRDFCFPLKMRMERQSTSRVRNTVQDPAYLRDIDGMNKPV

[14] = molecular target: Glutamate receptor ionotropic, NMDA 1 (Rattus norvegicus) (UniProt P35439); experiment: Inhibitor of NMDAGLSI/RA in the Eurofins SafetyScreen44 (BI) by Scintillation counting; details: Compound concentration 10.0 uM
[15] = molecular target: Prostaglandin E2 receptor EP4 subtype (Homo sapiens) (UniProt P35408); experiment: Activity against EP4/H in the Eurofins SafetyScreen44 (BI) by Radioactive Assay; details: Compound concentration 10.0 uM
[16] = molecular target: Glucocorticoid receptor (Homo sapiens) (UniProt P04150); experiment: Activity against GLUCOCORTICO in the Eurofins SafetyScreen44 (BI) by Radioactive Assay; details: Compound concentration 10.0 uM
Glucocorticoid receptor (Homo sapiens), sequence (P04150 whole entry): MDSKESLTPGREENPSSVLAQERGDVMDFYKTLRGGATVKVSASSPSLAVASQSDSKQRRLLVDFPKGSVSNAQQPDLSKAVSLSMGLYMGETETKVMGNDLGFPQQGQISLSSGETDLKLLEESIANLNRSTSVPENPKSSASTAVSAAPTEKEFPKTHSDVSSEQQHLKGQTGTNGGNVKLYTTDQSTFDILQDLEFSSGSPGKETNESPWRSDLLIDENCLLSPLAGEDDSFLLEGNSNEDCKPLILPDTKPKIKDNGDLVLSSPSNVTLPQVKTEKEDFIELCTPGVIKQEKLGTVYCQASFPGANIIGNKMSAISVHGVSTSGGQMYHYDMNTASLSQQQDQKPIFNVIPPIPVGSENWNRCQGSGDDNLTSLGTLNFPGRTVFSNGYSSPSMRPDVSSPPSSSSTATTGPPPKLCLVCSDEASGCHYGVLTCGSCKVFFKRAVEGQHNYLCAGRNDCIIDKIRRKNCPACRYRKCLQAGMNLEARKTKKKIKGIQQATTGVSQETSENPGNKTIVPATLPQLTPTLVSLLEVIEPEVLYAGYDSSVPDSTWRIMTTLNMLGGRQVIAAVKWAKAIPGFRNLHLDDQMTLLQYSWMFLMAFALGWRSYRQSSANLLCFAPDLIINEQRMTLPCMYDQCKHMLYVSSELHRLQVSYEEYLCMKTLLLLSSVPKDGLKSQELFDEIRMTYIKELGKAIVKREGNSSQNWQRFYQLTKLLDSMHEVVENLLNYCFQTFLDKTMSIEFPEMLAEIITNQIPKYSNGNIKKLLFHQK

[17] = molecular target: Adenosine receptor A2a (Homo sapiens) (UniProt P29274); experiment: Activity against A2A/HU in the Eurofins SafetyScreen44 (BI); details: Compound concentration 10.0 uM
Adenosine receptor A2a (Homo sapiens), sequence (P29274 whole entry): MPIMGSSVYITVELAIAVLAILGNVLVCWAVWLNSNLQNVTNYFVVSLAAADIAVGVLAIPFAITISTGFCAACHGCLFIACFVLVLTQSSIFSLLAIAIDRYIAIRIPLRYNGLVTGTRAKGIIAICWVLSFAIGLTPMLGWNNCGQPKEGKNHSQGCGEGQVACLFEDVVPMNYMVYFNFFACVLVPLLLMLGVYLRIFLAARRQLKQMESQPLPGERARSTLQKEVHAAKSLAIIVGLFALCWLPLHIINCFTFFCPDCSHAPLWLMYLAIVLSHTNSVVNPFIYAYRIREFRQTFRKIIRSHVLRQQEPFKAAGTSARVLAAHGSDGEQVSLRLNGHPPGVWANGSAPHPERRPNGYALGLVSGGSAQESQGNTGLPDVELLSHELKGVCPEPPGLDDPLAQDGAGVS

[18] = molecular target: Thyroid hormone receptor alpha (Rattus norvegicus) (UniProt P63059); experiment: Activity against THYROID HORM in the Eurofins SafetyScreen44 (BI) by Radioactive Assay; details: Homo sapiens; Compound concentration 10.0 uM
[19] = molecular target: Interleukin-1 receptor type 1 (Mus musculus) (UniProt P13504); experiment: Activity against IL-1ALPHA/M in the Eurofins SafetyScreen44 (BI) by Others; details: Compound concentration 10.0 uM
[20] = molecular target: B1 bradykinin receptor (Oryctolagus cuniculus, UniProt P48748); experiment: Radioligand binding assay (displacement of kallidin, rabbit BDKRB1 ) at 10 µM ( Non-specific binding is estimated in the presence of 10 µM Des-Arg9- (Leu8)-Bradykinin. Membranes are filtered and washed, the filters are then counted to determine [3H]Kallidin[des-Arg10, Leu9] specifically bound.); set-up: compound concentration 10 uM
[21] = molecular target: Alpha-1B adrenergic receptor (Rattus norvegicus) (UniProt P15823); experiment: Activity against ALPHA1B/R in the Eurofins SafetyScreen44 (BI) by Radioactive Assay; details: Compound concentration 10.0 uM
Alpha-1B adrenergic receptor (Rattus norvegicus), sequence (P15823 whole entry, looked up): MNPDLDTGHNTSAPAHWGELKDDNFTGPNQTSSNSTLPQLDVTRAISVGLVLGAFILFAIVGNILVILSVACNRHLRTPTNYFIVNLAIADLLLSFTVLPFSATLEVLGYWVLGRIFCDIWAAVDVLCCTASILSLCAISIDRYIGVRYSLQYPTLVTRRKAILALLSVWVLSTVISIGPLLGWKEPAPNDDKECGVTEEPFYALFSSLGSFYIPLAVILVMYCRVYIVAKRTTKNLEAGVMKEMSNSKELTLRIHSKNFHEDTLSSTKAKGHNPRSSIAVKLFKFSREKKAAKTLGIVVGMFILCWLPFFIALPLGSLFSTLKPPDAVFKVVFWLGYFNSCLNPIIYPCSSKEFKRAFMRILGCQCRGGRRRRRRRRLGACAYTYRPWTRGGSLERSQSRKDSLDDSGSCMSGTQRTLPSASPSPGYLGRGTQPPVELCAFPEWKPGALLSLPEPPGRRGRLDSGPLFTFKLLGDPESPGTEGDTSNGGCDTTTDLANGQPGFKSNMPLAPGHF

[22] = molecular target: Endothelin receptor type B (Homo sapiens) (UniProt P24530); experiment: Activity against ETB/HUM in the Eurofins SafetyScreen44 (BI) by Radioactive Assay; details: Compound concentration 10.0 uM
[23] = molecular target: Beta-1 adrenergic receptor (Homo sapiens) (UniProt P08588); experiment: Activity against BETA1/HU in the Eurofins SafetyScreen44 (BI) by Radioactive Assay; details: Compound concentration 10.0 uM
[24] = molecular target: Pyroglutamylated RF-amide peptide receptor (Homo sapiens) (UniProt Q96P65); experiment: Activity against GPR103 in the Eurofins SafetyScreen44 (BI) by Radioactive Assay; details: Compound concentration 10.0 uM
[25] = molecular target: D(3) dopamine receptor (Homo sapiens) (UniProt P35462); experiment: Activity against D3/HU in the Eurofins SafetyScreen44 (BI) by Radioactive Assay; details: Compound concentration 10.0 uM
D(3) dopamine receptor (Homo sapiens), sequence (P35462 whole entry): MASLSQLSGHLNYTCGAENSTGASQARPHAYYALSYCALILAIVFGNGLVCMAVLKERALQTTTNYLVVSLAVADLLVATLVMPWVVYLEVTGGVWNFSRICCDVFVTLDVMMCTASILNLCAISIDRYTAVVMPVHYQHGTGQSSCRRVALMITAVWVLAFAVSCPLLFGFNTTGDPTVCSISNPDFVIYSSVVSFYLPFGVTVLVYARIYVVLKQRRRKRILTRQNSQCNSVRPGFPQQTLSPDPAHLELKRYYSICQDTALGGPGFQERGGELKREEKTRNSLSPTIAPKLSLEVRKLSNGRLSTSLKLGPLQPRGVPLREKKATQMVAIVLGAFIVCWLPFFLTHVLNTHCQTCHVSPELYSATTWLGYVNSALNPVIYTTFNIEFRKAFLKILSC

[26] = molecular target: Sodium- and chloride-dependent GABA transporter 1 (Rattus norvegicus) (UniProt P23978); experiment: Activity against GABATRANS/RA in the Eurofins SafetyScreen44 (BI) by Radioactive Assay; details: Compound concentration 10.0 uM
[27] = molecular target: Sodium-dependent dopamine transporter (Homo sapiens) (UniProt Q01959); experiment: Inhibitor of DATRANS/H in the Eurofins SafetyScreen44 (BI) by Radioactive Assay; details: Compound concentration 10.0 uM
[28] = molecular target: Sodium-dependent serotonin transporter (Homo sapiens) (UniProt P31645); experiment: Activity against 5HTTRANS/HU in the Eurofins SafetyScreen44 (BI) by Radioactive Assay; details: Compound concentration 10.0 uM
Sodium-dependent serotonin transporter (Homo sapiens), sequence (P31645 whole entry, looked up): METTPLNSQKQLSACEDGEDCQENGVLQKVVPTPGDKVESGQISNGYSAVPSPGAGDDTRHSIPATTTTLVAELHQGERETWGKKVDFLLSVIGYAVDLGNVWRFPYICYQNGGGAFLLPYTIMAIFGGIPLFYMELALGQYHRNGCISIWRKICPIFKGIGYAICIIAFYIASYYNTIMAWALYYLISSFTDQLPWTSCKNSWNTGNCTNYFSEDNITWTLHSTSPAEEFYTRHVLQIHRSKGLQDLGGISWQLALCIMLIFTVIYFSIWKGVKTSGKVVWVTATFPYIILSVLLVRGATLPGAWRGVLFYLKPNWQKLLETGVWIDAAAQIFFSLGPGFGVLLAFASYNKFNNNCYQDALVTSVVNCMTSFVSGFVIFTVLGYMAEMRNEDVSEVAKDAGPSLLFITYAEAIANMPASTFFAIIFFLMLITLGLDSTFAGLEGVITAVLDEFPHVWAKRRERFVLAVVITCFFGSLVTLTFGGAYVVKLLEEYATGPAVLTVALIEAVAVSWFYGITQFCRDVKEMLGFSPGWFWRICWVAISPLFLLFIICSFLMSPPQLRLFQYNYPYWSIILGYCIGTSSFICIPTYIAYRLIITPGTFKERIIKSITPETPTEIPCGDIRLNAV

[29] = molecular target: D(1A) dopamine receptor (Homo sapiens) (UniProt P21728); experiment: Activity against D1/HU in the Eurofins SafetyScreen44 (BI) by Radioactive Assay; details: Compound concentration 10.0 uM
[30] = molecular target: Gamma-aminobutyric acid receptor subunit alpha-1 (Rattus norvegicus) (UniProt P62813); experiment: Activity against GABAACENTR in the Eurofins SafetyScreen44 (BI) by Radioactive Assay; details: Compound concentration 10.0 uM

Ki [5]: 5.3 nM (active) | IC50 [9]: 7 nM (active) | Ki [20]: 15.3 nM (active)
SMILES: COc1cc(C)c(S(=O)(=O)N(C)CCOCC(=O)N(C)[C@H]2CCC[C@@H](N3CCN(C)CC3)C2)c(C)c1
residual activity [1]: 105% | residual activity [2]: 104% | residual activity [3]: 109% | residual activity [4]: 100% | residual activity [6]: 100% | residual activity [7]: 101% | residual activity [8]: 85% | residual activity [10]: 96% | residual activity [11]: 95% | residual activity [12]: 91% | residual activity [13]: 99% | residual activity [14]: 93% | residual activity [15]: 93% | residual activity [16]: 103% | residual activity [17]: 97% | residual activity [18]: 84% | residual activity [19]: 79% | residual activity [21]: 96% | residual activity [22]: 104% | residual activity [23]: 105% | residual activity [24]: 105% | residual activity [25]: 86% | residual activity [26]: 119% | residual activity [27]: 103% | residual activity [28]: 108% | residual activity [29]: 97% | residual activity [30]: 96%
